Data on 2 compounds can be found in patent publication US20040022734A1, “Dihydroporphyrin derivatives and their uses” (priority 2000, published 2004).

Series [1] in a line: In vivo spectrofluorimetric measurement of incorporation and retention in muscle, skin and tumor of mice grafted with HT-29. The following applies: 2 mg/kg. Here is the method:
For these tests, the following was the procedure: spectrofluorimetric measurements were carried out on mice grafted with HT-29 at different intervals of time after injection of 2 mg/kg^−1 of m-THPC or SIMO1. The tested times were 3, 6, 12, 24, 48 and 144 hours on mice.
The level of fluorescence were recorded in different tissues, namely the muscle, the skin and the tumor. The measurements were taken by using an optical fiber placed directly in contact with the tissues. At least four spectra per tissue and per mouse were recorded (at least five mice were used for each experimental condition). Muscle, skin and tumor were successively studied.
The emission spectra of fluorescence of untreated mice tissue were recorded at three separate times so as to estimate the intermouse variations. The values of fluorescent intensity mentioned in FIG. 6 correspond for each organ to the result of the difference between the value of fluorescence obtained in a treated mouse and the value of fluorescence recorded in the control group. The results of spectrofluorometric measurement in vivo were expressed in beats per second (arbitrary unit).

The subject of series [2] is C6 cells. The series can be described thus: Intracellular localization and pharmacokinetics in C6 cells by fluorescent imaging. In kind it is cell-based. The following applies: FIG. 3; for Incorporation at one hour of incubation (intracellular fluorescence): 1 hour. The method, then: So as to confirm the potential use of the mentioned compounds for the production of a photosensitive composition administrable to a living creature and useful as an agent adapted to give rise, under the influence of irradiation, to cytolysis or necrosis at least partially of at least one target region of the human or animal body, a visualization was conducted of the localization in vitro of the SIMO1 molecule, as well as the determination of the pharmacokinetics compared to m-THPC, by fluorescent imaging so as to confirm that the mentioned compounds were capable of penetrating the cells. Thus, C6 cells were seeded at a rate of 10^5 cells/ml on circular glass plates after trypsinization. After 24 hours, cells were incubated with SIMO1 (10 μg/ml) at 37° C. for 3 hours and then washed with PBS (pH 7.2). Fluorescence analysis of SIMO1 (emitting at 650 nm) was carried out after excitation of 450 nm to 480 nm with a 150 watt Xenon lamp by using a black and white video camera with very sensitive detection of photons (Kappa CF 8/4; Fischer Scientific S.A., France), connected to an optical microscope (Olympus BX 40, France) provided with an oil immersion objective magnifying 100 times.

In series [3] the test system is C6 cells. Briefly: Phototoxicity of SIMO1 on C6 cells (laser irradiation, MTT count). In kind it is cell-based. Conditions: 20 joules/cm^2 diode laser. Here is the method:
C6 cells were cultured in flasks of 25 cm^2 (Polylabo, Strasbourg, France) in an RPMI medium supplemented with 10% (V/V) of fetal calf serum (FCS), 100 units of penicillin mL^−1, […] of streptomycin and 2 mM of glutamine.
The cells were replicated by dispersion culturing with 0.025% of trypsin in 0.02% ethylene-diaminotetracetic acid (EDTA) for a contact time of 2 minutes and returned to adhere at a dilution of 1:3, which maintain the cells in the exponential phase of growth. The cells were verified on a regular basis by contamination of the mycoplasms.
The cells thus cultivated were subjected to a photodynamic treatment. Aliquots (11 μl) of the photosensitizing solution SIMO1 were added to C6 cells adhered in wells of plates with 96 wells after trypsonation, as described above. The cellular concentration was 5.10^4 cells/ml^−1 (100 μl per well). The final concentration of the solutions of SIMO1 was comprised within the range of 0.5 to 50 μg/ml. Immediately after addition of the photosensitizer SIMO1, the plates of cells were held in complete darkness till the time of counting, except for a laser irradiation of the cells treated with PDT. The fresh medium containing FCS but free from photosensitizer was prepared before laser irradiation. […]
The optical density of each well of the microplates was then read at 570 nm by means of a Uniskan Titertack (Flow Laboratories, Puteaux, France). […]

The test system of series [4] is cellular tumor HT29 obtained initially from human colorectal adenocarcinoma. The series can be described thus: In vivo phototoxicity: growth of HT29 tumor grafts in nude mice after injection and laser irradiation. The following applies: for Activity on tumor growth, SIMO1 versus m-THPC: 2 mg/kg intra-peritoneal, irradiation 6 hours and 12 hours after injection, FIG. 5. Here is the method: To establish these conclusions, the following procedure was used: Swiss male nude/nude mice aged 7 to 9 weeks (weight range 25-35 g) were obtained from Iffa-Credo (L'arbresle, France).
The test method is that of the cellular tumor HT29 obtained initially from human colorectal adenocarcinoma.
The tumor grafts were obtained as follows: nonnecrotic solid tumor tissues (diameter 1 to 2 cm) were removed immediately after death of the donor mouse and then mechanically crushed in 1 ml of a 0.9% saline solution. This solution (0.2 ml) was injected sub-cutaneously into the rear paw of each mouse. This tumor was used one week later, when its diameter was 18-20 mm. […] The wavelength was illumination was selected between 652-653 nm.
The light source was a diode laser at 652 nm.
The luminous density was maintained below 0.3 W.cm^−2, at doses at which the thermal effects are indetectable. A single irradiation was carried out and the time of exposure was calculated as a function of the diameter of the tumor to obtain an energy density of 300 J/cm^−2 at a predetermined constant light density.
Each day, the index of tumor growth was measured by using a slide foot, the principal orthogonal diameters being added and divided by a factor of 2.
A statistical characteristic of the growth index between treated and control mice (without light or SIMO1) was carried by using the Student test.

Series [5] has as its system C6 cells. The series can be described thus: Toxicity of SIMO1 on non-irradiated C6 cells (MTT count). In kind it is cell-based. Here is the method: C6 cells were cultured in flasks of 25 cm^2 (Polylabo, Strasbourg, France) in an RPMI medium supplemented with 10% (V/V) of fetal calf serum (FCS), 100 units of penicillin mL^-1, […] of streptomycin and 2 mM of glutamine. The cells were replicated by dispersion culturing with 0.025% of trypsin in 0.02% ethylene-diaminotetracetic acid (EDTA) for a contact time of 2 minutes and returned to adhere at a dilution of 1:3, which maintain the cells in the exponential phase of growth. The cells were verified on a regular basis by contamination of the mycoplasms. The cells thus cultivated were subjected to a photodynamic treatment. Aliquots (11 μl) of the photosensitizing solution SIMO1 were added to C6 cells adhered in wells of plates with 96 wells after trypsonation, as described above. The cellular concentration was 5.10^4 cells/ml^-1 (100 μl per well). The final concentration of the solutions of SIMO1 was comprised within the range of 0.5 to 50 μg/ml. Immediately after addition of the photosensitizer SIMO1, the plates of cells were held in complete darkness till the time of counting, except for a laser irradiation of the cells treated with PDT. The fresh medium containing FCS but free from photosensitizer was prepared before laser irradiation. A laser with a diode at 650 nm was used. The power of the end of the fiber was adjusted, by using a device for measuring power (Coherent, France), at 500 mW. The light was transmitted to the target by an optical fiber at a distance of 20 mm so as to irradiate the cells in the wells 6 mm in diameter within a single field providing an illumination of all of the region. The time of exposure was 13 seconds per well at 650 nm, supplying an energy density of 20 J/cm^2. The cells were incubated with SIMO1 for 5 or 20 hours. For phototoxicity tests, the cells were washed and the medium was replaced immediately before laser irradiation. […] The optical density of each well of the microplates was then read at 570 nm by means of a […] […]

As to “2,3-dihydro-5, 15-Bis(3,5-dihydroxy-1-phenyl)-prohyrin [SIMO1]”, the “Detection of photosensitive agent in tissues after 48 hours” value in series [1] (48 hours after injection) is recorded as “no photosensitive agent was detected”. In addition, in series [1] (muscle, skin and tumor, FIG. 6), the “Retention time in all the tissues compared to m-THPC” value is listed as “shorter”. Besides, in the series with C6 cells [2], the “Incorporation at one hour of incubation (intracellular fluorescence)” value is given as “high incorporation” and the “Time of maximum intracellular concentration (fluorescence) after incubation” value was 3 h. Also, the “DL50, phototoxic treatment” value in the series on C6 cells [3] (5 hours of incubation) amounted to 1.75 µg/mL. Further, the “DL50, phototoxic treatment” value in the series on C6 cells [3] (20 hours of incubation) was 0.45 µg/mL. Besides, the “Activity on tumor growth, SIMO1 versus m-THPC” value in series [4] is on record as “comparable activity”. Also, the “Retardation between intra-peritoneal injection and laser irradiation giving the most marked effects” value in series [4] (5 mg/kg intra-peritoneal, 300 J/cm^2, FIG. 4) was determined as 12 h. In addition, the “Slowing of growth of the tumor” value in series [4] (HT-29 grafted nude mice, 5 mg/kg intra-peritoneal, 12 hours between injection and irradiation, 300 J/cm^2 at 652 nm, twelve days after treatment) was 40%. In series [4] (all tested conditions: irradiation 2, 6, 12, 24, 48 hours after 5 mg/kg intra-peritoneal, 300 J/cm^2), the “Growth of the tumor compared to the untreated control group” value is “reduction of growth of the tumor”. For the same compound, the “DL50, toxicity (non-irradiated)” value in the series with C6 cells [5] was 29 µg/mL. Besides, the “SIMO1 toxicity (non-irradiated)” value in the series on C6 cells [5] (C6 cells, 5 hours of incubation, no irradiation) is given as “no toxicity was detected”. In the series with C6 cells [5] (C6 cells, no irradiation), the “Concentration short of which harmless in the absence of luminous irradiation” value is “about 20 μg/ml”.
Turning to `Oc1cccc(-c2c3nc(c(-c4cccc(O)c4)c4ccc([nH]4)c(-c4cccc(O)c4)c4nc(c(-c5cccc(O)c5)c5ccc2[nH]5)CC4)C=C3)c1` [m-THPC, reference compound], in series [1] (144 hours after injection), the “Detection of photosensitive agent in tissues 144 hours after injection” value is on record as “still detectable”. In addition, in the series on C6 cells [2], the “Incorporation at one hour of incubation (intracellular fluorescence)” value is “small incorporation” and the “Time of maximum intracellular concentration (fluorescence) after incubation” value is given as “increases to 6 hours”. Also, the “Activity on tumor growth, SIMO1 versus m-THPC” value in series [4] is “comparable activity”.
